The source made the active and inactive calls.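 How the source made its calls: active means MAPK inhibition above 50%; inactive means inhibition below 50%.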
System: ERK MAP kinase activity (EKAR reporter), human
Assay: inhibitors of ERK MAP kinase catalytic activity, late-stage follow-up, mechanism study for lytic granule exocytosis inhibitor project, TALL-104 cells, EKAR, flow cytometry, CherryPick01 (AID 720668)
Settings: EKAR/pCdc25C flow cytometry, PMA/thapsigargin, at 30 µM, active compounds read high

Compound	inhibition
COc1ccc(-n2sc3ccccc3c2=O)cc1	13.3% (inactive)
CCCCC[C@@H](C)N1C[C@@H](COCc2ccccc2)Oc2cc(N3CC[C@@H](N(C)C)C3)ccc2S1(=O)=O	7.3% (inactive)
Cc1ccc(Nc2nc(NCc3ccco3)c3ccccc3n2)cc1	-6.4% (inactive)
CC1COCC(C)N1C1=C(Cl)C(=O)c2ccccc2C1=O (configuration not stated)	-52.7% (inactive)
CCN(CC)CCCNc1ccc(-c2nnc(-c3ccc(OCC(C)C)cc3)o2)cn1	-20.8% (inactive)
Cc1ccc(S(=O)(=O)n2ccc3c(OCCOCCNCc4ccc(F)cc4)cccc32)cc1	-15.1% (inactive)
O=C(CN1C(=O)/C(=C\c2cccc(Br)c2)Oc2ccccc21)NCCCN1CCOCC1	-3.6% (inactive)
O=C(Cn1sc2ccccc2c1=O)NC12CC3CC(CC(C3)C1)C2	29.8% (inactive)
CC1=NOC(=O)/C1=C/c1ccc(-c2ccc(Cl)cc2)o1	16.5% (inactive)
CCCCC[C@@H](C)N1C[C@@H](COCc2ccccc2)Oc2cc(N3CC[C@H](N(C)C)C3)ccc2S1(=O)=O	6.3% (inactive)
CC(C)(c1ccccc1)c1ccc(OCC(O)CNC2CCN(Cc3ccccc3)CC2)cc1 (configuration not stated)	-13.5% (inactive)
COC(=O)c1c(NC(=O)c2nc3ccccc3s2)sc2c1CC(C)(C)NC2(C)C	14.4% (inactive)
CCCCC[C@@H](C)N1C[C@H](COCc2ccccc2)Oc2cc(N3CC[C@@H](N(C)C)C3)ccc2S1(=O)=O	-5.3% (inactive)
COc1ccccc1CNc1nc(NCc2ccc(C(C)C)cc2)c2sccc2n1	-9.9% (inactive)

Other lines, results leading:

inhibition	Compound
-4% (inactive)	COc1ccc(N2C(=O)CC(Sc3nnc(-c4ccccc4)o3)C2=O)cc1 (configuration not stated)
-19.8% (inactive)	COc1ccc(-c2cc(NC=O)c3ncc(-c4ccccc4)n3c2)cc1OC
-1.6% (inactive)	O=c1c2ccccc2sn1-c1ccccc1
-19% (inactive)	O=CNc1cc(-c2ccsc2)cn2c(-c3ccccc3)cnc12
-6.6% (inactive)	CN(C)CCNC(=O)c1ccc(-c2cn3c(-c4ccc(Oc5ccccc5)cc4)cnc3cn2)cc1
4.6% (inactive)	O=C(Cn1sc2ccccc2c1=O)Nc1ccc(F)cc1
-34.2% (inactive)	COc1ccc(-c2cc(NC=O)c3ncc(-c4cccc(OC)c4)n3c2)cc1
21.5% (inactive)	O=c1c2ccc(F)cc2sn1-c1ccccc1
